Tested on: rodent lifetime carcinogenesis bioassay, tumor incidence TD50
Assay: chronic cancer bioassays in animals – CPDB, compiled studies (AID 1745844)
Details: rat, strain Fischer 344, by gavage

Compound: ClCC(Cl)CCl
- TD50 (females, site: mammary gland, lesion: fibroadenoma, dosed 91 weeks, study length 105 weeks): 3.42 mg/kg/day
- TD50 (females, site: palate + pharynx + tongue, lesion: squamous-cell papilloma + squamous-cell carcinoma, dosed 91 weeks, study length 105 weeks): 2.93 mg/kg/day
- TD50 (females, site: palate + pharynx, lesion: squamous-cell carcinoma, dosed 91 weeks, study length 105 weeks): 8.87 mg/kg/day
- TD50 (females, site: palate + tongue, lesion: squamous-cell papilloma, dosed 91 weeks, study length 105 weeks): 5.98 mg/kg/day
- TD50 (females, site: palate, lesion: squamous-cell papilloma, dosed 91 weeks, study length 105 weeks): 18.5 mg/kg/day
- TD50 (females, site: pharynx + tongue, lesion: squamous-cell carcinoma, dosed 91 weeks, study length 105 weeks): 5.12 mg/kg/day
- TD50 (females, site: thyroid gland, lesion: follicular-cell adenoma + follicular-cell carcinoma, dosed 91 weeks, study length 105 weeks): 25.2 mg/kg/day
- TD50 (females, site: thyroid gland, lesion: follicular-cell adenoma, dosed 91 weeks, study length 105 weeks): 36.9 mg/kg/day
- TD50 (females, site: tongue, lesion: squamous-cell carcinoma + squamous-cell papilloma, dosed 91 weeks, study length 105 weeks): 4.7 mg/kg/day
- TD50 (females, site: tongue, lesion: squamous-cell carcinoma, dosed 91 weeks, study length 105 weeks): 10.1 mg/kg/day
- TD50 (females, site: tongue, lesion: squamous-cell papilloma, dosed 91 weeks, study length 105 weeks): 9.61 mg/kg/day
- TD50 (males, site: Zymbal's gland, lesion: carcinoma, dosed 94 weeks, study length 104 weeks): 297 mg/kg/day
- TD50 (males, site: adrenal medulla, lesion: pheochromocytoma benign, bilateral + pheochromocytoma, benign, dosed 94 weeks, study length 104 weeks): 12.4 mg/kg/day
- TD50 (males, site: adrenal medulla, lesion: pheochromocytoma benign, bilateral + pheochromocytoma, complex + pheochromocytoma, malignant + pheochromocytoma, benign, dosed 94 weeks, study length 104 weeks): 11.4 mg/kg/day
- TD50 (males, site: all sites, lesion: mononuclear-cell leukemia, dosed 94 weeks, study length 104 weeks): 11.9 mg/kg/day
- TD50 (males, site: any site (literature study), lesion: several types, types named in the paper, dosed 94 weeks, study length 104 weeks): 1.36 mg/kg/day
- TD50 (males, site: colon + jejunum + rectum, lesion: adenocarcinoma + adenomatous polyp, dosed 94 weeks, study length 104 weeks): 73.4 mg/kg/day
- TD50 (males, site: colon + jejunum, lesion: adenocarcinoma, dosed 94 weeks, study length 104 weeks): 102 mg/kg/day
- TD50 (males, site: colon + rectum, lesion: adenomatous polyp, dosed 94 weeks, study length 104 weeks): 264 mg/kg/day
- TD50 (males, site: forestomach + kidney + palate + pancreas + preputial gland + tongue + Zymbal's gland, lesion: squamous-cell carcinoma + squamous-cell papilloma + tubule adenoma + adenoma + acinar-cell adenoma + acinar-cell adenocarcinoma + ca, dosed 94 weeks, study length 104 weeks): 1.1 mg/kg/day
- TD50 (males, site: forestomach, lesion: squamous-cell carcinoma + squamous-cell papilloma, dosed 94 weeks, study length 104 weeks): 1.15 mg/kg/day
- TD50 (males, site: forestomach, lesion: squamous-cell carcinoma, dosed 94 weeks, study length 104 weeks): 3 mg/kg/day
- TD50 (males, site: forestomach, lesion: squamous-cell papilloma, dosed 94 weeks, study length 104 weeks): 1.53 mg/kg/day
- TD50 (males, site: kidney, lesion: tubule adenoma, dosed 94 weeks, study length 104 weeks): 4.44 mg/kg/day
- TD50 (males, site: liver, lesion: hepatocellular adenoma + hepatoblastoma + hepatocellular carcinoma, dosed 94 weeks, study length 104 weeks): 23 mg/kg/day
- TD50 (males, site: liver, lesion: hepatocellular adenoma + hepatocellular carcinoma, dosed 94 weeks, study length 104 weeks): 23 mg/kg/day
- TD50 (males, site: liver, lesion: hepatocellular adenoma, dosed 94 weeks, study length 104 weeks): 31.7 mg/kg/day
- TD50 (males, site: palate + tongue, lesion: squamous-cell carcinoma + squamous-cell papilloma, dosed 94 weeks, study length 104 weeks): 4.48 mg/kg/day
- TD50 (males, site: palate + tongue, lesion: squamous-cell carcinoma, dosed 94 weeks, study length 104 weeks): 8.65 mg/kg/day
- TD50 (males, site: palate + tongue, lesion: squamous-cell papilloma, dosed 94 weeks, study length 104 weeks): 8.16 mg/kg/day
- TD50 (males, site: palate, lesion: squamous-cell carcinoma, dosed 94 weeks, study length 104 weeks): 11.7 mg/kg/day
- TD50 (males, site: palate, lesion: squamous-cell papilloma, dosed 94 weeks, study length 104 weeks): 36.6 mg/kg/day
- TD50 (males, site: pancreas, lesion: acinar-cell adenocarcinoma, dosed 94 weeks, study length 104 weeks): 51.5 mg/kg/day
- TD50 (males, site: pancreas, lesion: adenoma + acinar-cell adenoma + acinar-cell adenocarcinoma, dosed 94 weeks, study length 104 weeks): 1.65 mg/kg/day
- TD50 (males, site: pancreas, lesion: adenoma + acinar-cell adenoma, dosed 94 weeks, study length 104 weeks): 1.65 mg/kg/day
- TD50 (males, site: preputial gland, lesion: adenoma + carcinoma, dosed 94 weeks, study length 104 weeks): 9.59 mg/kg/day
- TD50 (males, site: preputial gland, lesion: adenoma, dosed 94 weeks, study length 104 weeks): 14 mg/kg/day
- TD50 (males, site: preputial gland, lesion: carcinoma, dosed 94 weeks, study length 104 weeks): 28 mg/kg/day
- TD50 (males, site: skin, lesion: basal-cell carcinoma + keratoacanthoma + squamous-cell carcinoma + squamous-cell papilloma + trichoepithelioma, dosed 94 weeks, study length 104 weeks): 20.8 mg/kg/day
- TD50 (males, site: skin, lesion: squamous-cell carcinoma + squamous-cell papilloma, dosed 94 weeks, study length 104 weeks): 39.6 mg/kg/day
- TD50 (males, site: skin, lesion: squamous-cell papilloma, dosed 94 weeks, study length 104 weeks): 51 mg/kg/day
- TD50 (males, site: subcutaneous tissue, lesion: fibroma + sarcoma, dosed 94 weeks, study length 104 weeks): 19.6 mg/kg/day
- TD50 (males, site: subcutaneous tissue, lesion: fibroma, dosed 94 weeks, study length 104 weeks): 20.2 mg/kg/day
- TD50 (males, site: testis, lesion: interstitial-cell adenoma, bilateral + interstitial-cell adenoma, dosed 94 weeks, study length 104 weeks): 1.35 mg/kg/day
- TD50 (males, site: thyroid gland, lesion: c-cell adenoma + c-cell carcinoma, dosed 94 weeks, study length 104 weeks): 8.15 mg/kg/day
- TD50 (males, site: thyroid gland, lesion: c-cell adenoma, dosed 94 weeks, study length 104 weeks): 10.3 mg/kg/day
- TD50 (males, site: thyroid gland, lesion: follicular-cell adenoma + follicular-cell carcinoma, dosed 94 weeks, study length 104 weeks): 35.2 mg/kg/day
- TD50 (males, site: tongue, lesion: squamous-cell carcinoma + squamous-cell papilloma, dosed 94 weeks, study length 104 weeks): 7.86 mg/kg/day
- TD50 (males, site: tongue, lesion: squamous-cell carcinoma, dosed 94 weeks, study length 104 weeks): 34.7 mg/kg/day
- TD50 (males, site: tongue, lesion: squamous-cell papilloma, dosed 94 weeks, study length 104 weeks): 10.2 mg/kg/day

— PubChem BioAssay AID1745844 (Carcinogenic Potency Database (CPDB), 2022)
